{"source": "ChEMBL document CHEMBL1909046", "about": "“DrugMatrix in vitro pharmacology data”", "key": {"[1]": {"target": "T1, Polyunsaturated fatty acid lipoxygenase ALOX15 (Oryctolagus cuniculus, UniProt P12530)", "T1 sequence (P12530 whole entry)": "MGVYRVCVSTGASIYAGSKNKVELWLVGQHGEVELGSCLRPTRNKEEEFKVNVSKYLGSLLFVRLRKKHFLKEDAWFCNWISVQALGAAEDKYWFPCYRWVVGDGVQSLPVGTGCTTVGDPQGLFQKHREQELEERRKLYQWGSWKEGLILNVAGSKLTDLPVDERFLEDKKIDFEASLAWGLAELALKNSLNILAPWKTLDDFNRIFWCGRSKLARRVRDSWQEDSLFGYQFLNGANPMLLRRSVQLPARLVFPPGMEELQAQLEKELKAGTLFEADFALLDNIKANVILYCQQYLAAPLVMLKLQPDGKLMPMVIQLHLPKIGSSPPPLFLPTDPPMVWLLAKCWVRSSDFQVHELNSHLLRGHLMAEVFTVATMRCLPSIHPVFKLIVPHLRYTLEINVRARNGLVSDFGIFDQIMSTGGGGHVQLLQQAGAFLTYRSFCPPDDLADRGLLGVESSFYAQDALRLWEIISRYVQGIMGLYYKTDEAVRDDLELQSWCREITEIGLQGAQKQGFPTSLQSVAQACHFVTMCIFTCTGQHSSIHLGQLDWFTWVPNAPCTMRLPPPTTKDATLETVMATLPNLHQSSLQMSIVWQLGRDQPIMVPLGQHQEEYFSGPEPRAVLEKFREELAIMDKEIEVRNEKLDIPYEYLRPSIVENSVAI", "assay": "biochemical", "format": "tissue-based, Reticulocytes", "details": "reticulocytes"}, "[2]": {"target": "T2, Muscarinic acetylcholine receptor M2 (Homo sapiens, UniProt P08172)", "T2 sequence (P08172 whole entry)": "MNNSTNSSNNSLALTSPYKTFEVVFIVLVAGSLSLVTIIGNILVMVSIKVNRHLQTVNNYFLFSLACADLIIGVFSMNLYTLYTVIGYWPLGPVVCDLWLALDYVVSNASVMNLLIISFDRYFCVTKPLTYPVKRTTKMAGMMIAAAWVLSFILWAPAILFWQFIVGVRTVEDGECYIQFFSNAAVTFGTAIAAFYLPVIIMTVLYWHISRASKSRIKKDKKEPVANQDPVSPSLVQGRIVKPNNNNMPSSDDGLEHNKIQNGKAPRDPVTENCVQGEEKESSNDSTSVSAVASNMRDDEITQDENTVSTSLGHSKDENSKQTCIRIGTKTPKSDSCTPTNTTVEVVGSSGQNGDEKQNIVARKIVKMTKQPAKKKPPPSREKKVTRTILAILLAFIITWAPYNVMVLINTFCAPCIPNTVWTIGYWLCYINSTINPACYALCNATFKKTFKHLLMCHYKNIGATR", "format": "cell membranes, CHO-K1, Membrane"}, "[3]": {"target": "Delta-type opioid receptor (Homo sapiens, UniProt P41143)", "sequence (P41143 whole entry)": "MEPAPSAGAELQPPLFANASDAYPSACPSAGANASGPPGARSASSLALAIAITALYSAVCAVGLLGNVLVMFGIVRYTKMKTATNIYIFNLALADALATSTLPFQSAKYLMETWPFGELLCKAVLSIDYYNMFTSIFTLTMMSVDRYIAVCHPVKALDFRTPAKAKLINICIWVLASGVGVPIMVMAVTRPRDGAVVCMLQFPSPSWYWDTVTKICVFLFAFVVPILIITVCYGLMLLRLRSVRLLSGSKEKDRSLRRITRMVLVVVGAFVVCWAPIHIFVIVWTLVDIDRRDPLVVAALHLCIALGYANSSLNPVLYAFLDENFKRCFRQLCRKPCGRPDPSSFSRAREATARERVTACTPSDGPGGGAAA", "format": "cell membranes, HEK293, Membrane", "details": "hek293"}, "Progesterone receptor": {"target": "T3, Progesterone receptor (Bos taurus, UniProt Q690N0)", "T3 sequence (Q690N0 whole entry)": "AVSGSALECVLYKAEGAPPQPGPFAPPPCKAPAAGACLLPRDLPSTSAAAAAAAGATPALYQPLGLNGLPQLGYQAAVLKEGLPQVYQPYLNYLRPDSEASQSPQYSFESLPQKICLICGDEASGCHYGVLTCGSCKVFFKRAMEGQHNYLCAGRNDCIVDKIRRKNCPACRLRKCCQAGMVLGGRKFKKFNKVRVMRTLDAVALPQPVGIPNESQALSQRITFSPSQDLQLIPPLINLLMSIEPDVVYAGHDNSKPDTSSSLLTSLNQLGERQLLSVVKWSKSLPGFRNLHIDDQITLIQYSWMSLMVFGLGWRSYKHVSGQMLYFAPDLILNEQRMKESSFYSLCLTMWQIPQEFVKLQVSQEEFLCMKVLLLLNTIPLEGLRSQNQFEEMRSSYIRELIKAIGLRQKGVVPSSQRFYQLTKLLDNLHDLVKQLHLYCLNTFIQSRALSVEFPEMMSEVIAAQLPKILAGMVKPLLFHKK", "assay": "DRUGMATRIX: Progesterone radioligand binding (ligand: [3H] R-5020)", "format": "tissue-based, Uterus", "details": "Not Active = under 50% inhibition at 10 µM"}, "[4]": {"target": "Protein kinase C alpha type (Homo sapiens, UniProt P17252)", "format": "cell-based", "details": "sf9"}, "Cytochrome P450 2A6": {"target": "T4, Cytochrome P450 2A6 (Homo sapiens, UniProt P11509)", "T4 sequence (P11509 whole entry)": "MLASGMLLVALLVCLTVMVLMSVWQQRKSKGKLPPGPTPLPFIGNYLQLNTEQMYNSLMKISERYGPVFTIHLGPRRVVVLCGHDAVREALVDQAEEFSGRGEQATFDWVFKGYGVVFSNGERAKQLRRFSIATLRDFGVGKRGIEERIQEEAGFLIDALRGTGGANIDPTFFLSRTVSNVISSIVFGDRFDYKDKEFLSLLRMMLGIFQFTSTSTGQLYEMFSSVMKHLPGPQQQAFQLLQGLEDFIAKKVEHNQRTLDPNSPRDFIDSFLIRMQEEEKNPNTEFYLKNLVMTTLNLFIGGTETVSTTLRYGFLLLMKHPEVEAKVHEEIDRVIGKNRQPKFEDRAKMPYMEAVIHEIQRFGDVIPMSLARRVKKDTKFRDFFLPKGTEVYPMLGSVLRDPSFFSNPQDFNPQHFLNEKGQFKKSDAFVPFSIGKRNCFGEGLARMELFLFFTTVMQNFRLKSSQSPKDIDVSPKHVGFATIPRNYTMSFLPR", "details": "bti-tn-5b1-4"}}, "data": [{"molecule": "CC(O)COC[C@H]1O[C@@H]2O[C@H]3[C@H](O)[C@@H](O)[C@@H](O[C@H]4[C@H](O)[C@@H](O)[C@@H](O[C@H]5[C@H](O)[C@@H](O)[C@@H](O[C@H]6[C@H](O)[C@@H](O)[C@@H](O[C@H]7[C@H](O)[C@@H](O)[C@@H](O[C@H]8[C@H](O)[C@@H](O)[C@@H](O[C@H]1[C@H](O)[C@H]2O)O[C@@H]8COCC(C)O)O[C@@H]7COCC(C)O)O[C@@H]6COCC(C)O)O[C@@H]5COCC(C)O)O[C@@H]4COCC(C)O)O[C@@H]3COCC(C)O", "note": "(stereo partly drawn) [2-HYDROXYPROPYL-BETA-CYCLODEXTRIN]; as to Ki: in other assays of this panel Not Active means under 50% inhibition at 10 µM", "values": [{"measurement": "IC50", "setting": "[1]", "result": "Not Active"}, {"measurement": "IC50", "setting": "[2]; cho-k1", "result": "Not Active"}, {"measurement": "IC50", "setting": "[3]", "result": "Not Active"}, {"measurement": "IC50", "setting": "Progesterone receptor", "result": "Not Active"}, {"measurement": "IC50", "setting": "[4]", "result": "Not Active"}, {"measurement": "IC50", "setting": "Cytochrome P450 2A6", "result": "Not Active"}, {"measurement": "Ki", "setting": "Cytochrome P450 2A6", "result": "Not Active"}]}, {"molecule": "CS(=O)(=O)Nc1ccc([N+](=O)[O-])cc1Oc1ccccc1", "note": "[NIMESULIDE]", "values": [{"measurement": "IC50", "setting": "[1]", "result": "Not Active"}, {"measurement": "IC50", "setting": "[2]; cho-k1", "result": "Not Active"}, {"measurement": "IC50", "setting": "[3]", "result": "Not Active"}, {"measurement": "IC50", "setting": "Progesterone receptor", "result": "Not Active"}, {"measurement": "IC50", "setting": "[4]", "result": "Not Active"}, {"measurement": "IC50", "setting": "Cytochrome P450 2A6", "result": "Not Active"}, {"measurement": "Ki", "setting": "Cytochrome P450 2A6", "result": "Not Active"}]}, {"molecule": "C[N+](C)(C)C[C@H](O)CC(=O)[O-]", "note": "[LEVOCARNITINE]", "values": [{"measurement": "IC50", "setting": "[1]", "result": "Not Active"}, {"measurement": "IC50", "setting": "[2]; cho-k1", "result": "Not Active"}, {"measurement": "IC50", "setting": "[3]", "result": "Not Active"}, {"measurement": "IC50", "setting": "Progesterone receptor", "result": "Not Active"}, {"measurement": "IC50", "setting": "[4]", "result": "Not Active"}, {"measurement": "IC50", "setting": "Cytochrome P450 2A6", "result": "Not Active"}, {"measurement": "Ki", "setting": "Cytochrome P450 2A6", "result": "Not Active"}]}, {"molecule": "O=C(O)c1cc(-c2ccc(F)cc2F)ccc1O", "note": "[DIFLUNISAL]", "values": [{"measurement": "IC50", "setting": "[1]", "result": "Not Active"}, {"measurement": "IC50", "setting": "[2]; cho-k1", "result": "Not Active"}, {"measurement": "IC50", "setting": "[3]", "result": "Not Active"}, {"measurement": "IC50", "setting": "Progesterone receptor", "result": "Not Active"}, {"measurement": "IC50", "setting": "[4]", "result": "Not Active"}, {"measurement": "IC50", "setting": "Cytochrome P450 2A6", "result": "Not Active"}, {"measurement": "Ki", "setting": "Cytochrome P450 2A6", "result": "Not Active"}]}, {"molecule": "CN1CCN(C(c2ccccc2)c2ccccc2)CC1", "note": "[CYCLIZINE]", "values": [{"measurement": "IC50", "setting": "[1]", "result": "Not Active"}, {"measurement": "IC50", "setting": "[2]; read-out: IC50", "result": 1160, "unit": "nM"}, {"measurement": "Ki", "setting": "[2]; read-out: Ki", "result": 412, "unit": "nM"}, {"measurement": "IC50", "setting": "[3]", "result": "Not Active"}, {"measurement": "IC50", "setting": "Progesterone receptor", "result": "Not Active"}, {"measurement": "IC50", "setting": "[4]", "result": "Not Active"}, {"measurement": "IC50", "setting": "Cytochrome P450 2A6", "result": "Not Active"}, {"measurement": "Ki", "setting": "Cytochrome P450 2A6", "result": "Not Active"}]}, {"molecule": "CC(C)(C)NCC(O)COc1cccc2c1CC(O)C(O)C2", "note": "(centres undefined) [NADOLOL]", "values": [{"measurement": "IC50", "setting": "[1]", "result": "Not Active"}, {"measurement": "IC50", "setting": "[2]; cho-k1", "result": "Not Active"}, {"measurement": "IC50", "setting": "[3]", "result": "Not Active"}, {"measurement": "IC50", "setting": "Progesterone receptor", "result": "Not Active"}, {"measurement": "IC50", "setting": "[4]", "result": "Not Active"}, {"measurement": "IC50", "setting": "Cytochrome P450 2A6", "result": "Not Active"}, {"measurement": "Ki", "setting": "Cytochrome P450 2A6", "result": "Not Active"}]}, {"molecule": "CCCNC(=O)NS(=O)(=O)c1ccc(Cl)cc1", "note": "[CHLORPROPAMIDE]", "values": [{"measurement": "IC50", "setting": "[1]", "result": "Not Active"}, {"measurement": "IC50", "setting": "[2]; cho-k1", "result": "Not Active"}, {"measurement": "IC50", "setting": "[3]", "result": "Not Active"}, {"measurement": "IC50", "setting": "Progesterone receptor", "result": "Not Active"}, {"measurement": "IC50", "setting": "[4]", "result": "Not Active"}, {"measurement": "IC50", "setting": "Cytochrome P450 2A6", "result": "Not Active"}, {"measurement": "Ki", "setting": "Cytochrome P450 2A6", "result": "Not Active"}]}, {"molecule": "CO/N=C(\\C(=O)N[C@@H]1C(=O)N2C(C(=O)O)=C(COC(C)=O)CS[C@H]12)c1csc(N)n1", "note": "[CEFOTAXIME]", "values": [{"measurement": "IC50", "setting": "[1]", "result": "Not Active"}, {"measurement": "IC50", "setting": "[2]; cho-k1", "result": "Not Active"}, {"measurement": "IC50", "setting": "[3]", "result": "Not Active"}, {"measurement": "IC50", "setting": "Progesterone receptor", "result": "Not Active"}, {"measurement": "IC50", "setting": "[4]", "result": "Not Active"}, {"measurement": "IC50", "setting": "Cytochrome P450 2A6", "result": "Not Active"}, {"measurement": "Ki", "setting": "Cytochrome P450 2A6", "result": "Not Active"}]}, {"molecule": "Nc1cc(-c2ccncc2)c[nH]c1=O", "note": "[INAMRINONE]", "values": [{"measurement": "IC50", "setting": "[1]", "result": "Not Active"}, {"measurement": "IC50", "setting": "[2]; cho-k1", "result": "Not Active"}, {"measurement": "IC50", "setting": "[3]", "result": "Not Active"}, {"measurement": "IC50", "setting": "Progesterone receptor", "result": "Not Active"}, {"measurement": "IC50", "setting": "[4]", "result": "Not Active"}, {"measurement": "IC50", "setting": "Cytochrome P450 2A6", "result": "Not Active"}, {"measurement": "Ki", "setting": "Cytochrome P450 2A6", "result": "Not Active"}]}]}
